Test system: Herpes simplex virus
Test: Administration to human subjects with Herpes symptoms (case reports)
Format: in vivo
Conditions: case 3: taken for years by man and woman positive for HSV 1 and 2
Protocol: • 1. Frequent Genital herpes outbreaks—A person from Karnataka, India, suffers from severe blistering, pain and burning around the pubic region and genitals due to one or more strains of the Herpes virus. The composition of the invention as disclosed in Example 1 is administered. […] Tiny pimple-like outbreaks around lips—A person—starts experiencing tiny pimples on their lips which later appear like blisters. Blood tests show high titer from HSV 1 antibodies. […] Each tests positive for HSV 1 and 2. […] A person reports the presence of abnormal cells along with the presence of HPV. These cells then develop into “pre-cancerous” cells. This subject daily ingests the composition of Example 1 for 4 months. […] After administration of the composition of Example 1 for over 6 months, the results for HPV come back negative. • 6. A person reports warts on their hands for about 6 years which they remove with laser therapy. This burns the skin and leaves scars. […] A person reports an HPV infection for 5 years. Within the first 6 months of daily ingestion of the composition of Example 1, all tests for HPV are negative and no recurrence is shown. • 8. A person ingests the composition of Example 1 along with an alkaline diet. This subject suffers from larger warts (around 10 in number). […]

Nc1nc2c(ncn2COCCO)c(=O)[nH]1 [acyclovir]
outcome of previous antiviral treatment: little success
